Consider one compound from patent publication US10449200B2, “Combined inhibition of the vitamin D receptor and poly(ADP) ribose polymerase (PARP) in the treatment of cancer” (Institute for Cancer Research, priority 2014, dated 2019).

Where two headings read alike, the source gives them in different places.

The subject of assay [1] is BxPC3 cells. Description: TSA clonogenic assay (TSA + gemcitabine). To be noted: Homo sapiens. It is filed as cell-based. As to the method: (§1) Cell viability assays. For clonogenic assays, 1000 cells per well were seeded into 6 well plates on day 0. Cells were treated with gemcitabine at various doses on day 1 for 24 hours, Gemcitabine was washed out on day 2, and cells were allowed to grow for a subsequent 10 days before being fixed (10% methanol+10% acetic acid) and stained with crystal violet (0.4% in 20% ethanol) for colony counting and quantitation. For Rucaparib clonogenic assays, the drug was added at various doses 24 hours after cell plating, and cells were allowed to grow for a subsequent 10 days in the presence of Rucaparib. For TSA clonogenic assays, the drug was added for 4 hours prior to addition of gemcitabine or vehicle for another 18 hours before drugs were washed away, and cells were allowed to grow in drug-free medium for 10 days.
To test the functional relevance of the TSA mediated Rad51 foci formation in the VDR knockdown cells, whether TSA altered the sensitivity to gemcitabine was investigated. […] Parental cell sensitivity to gemcitabine was increased by TSA treatments at the concentrations tested (p=0.02).

In assay [2] the test system is Panc1 cells. Description: Clonogenic survival assay, gemcitabine. It is filed as cell-based, human. As to conditions: for IC50: Homo sapiens. The procedure:
Cell culture and chemicals. Panc1, BxPC3, and CFPAC1 cells were purchased from American Type Culture Collection (ATCC) and banked in house until use. Cell lines were cultured in DMEM/10% FBS supplemented with 2 mM glutamine and 1% penicillin, streptomycin, and kanamycin (PSK) and were maintained at 37° C. in 5% CO2. Charcoal stripped (in house cell culture facility) and dialyzed FBS (Life Technologies; 509 26400-036) were used. Gemcitabine was obtained from the in house pharmacy. Rucaparib and trichostatin A were gifts.
as §1

The test system of assay [3] is Panc1 cells. Put plainly: Cell viability (Cell Titer Glo) in siRNA screen. It is filed as cell-based. To be noted: Homo sapiens, PANC-1, read-out: sublethal dose (IC20). As to the method:
Synthetic lethal RNAi Screen. High throughput RNAi was performed using the validated human genome-wide siRNA library version 2.0 obtained from Dharmacon. This is a SMARTPool (4 siRNAs per gene) library that targeted ^˜23,500 of the annotated genes, and has been validated to deplete mRNA by 75%. Stock siRNA was diluted in siRNA buffer (Dharmacon; B-002000-UB-100) and 10 ng of siRNA was reverse transfected into Panc1 cells seeded into white Corning 384-well plates (Fisher Scientific; 07-201-320) in quadruplicates on day 0. Briefly, diluted Dharmafect1 reagent (Dharmacon; T-2001-01) in OptiMEM (Life Technologies; 51985091) was added to the wells and allowed to complex with siRNA for 20 minutes at room temperature. Panc1 cells in 100 μl of DMEM/10% FBS media without PSK were mixed with 100 μl of transfection mix at 1000 cells/well. Plates were incubated at 37° C. with 5% CO2. […] Total viable cell number was determined by the addition of Cell Titer Glo (Promega; G7573) and relative luminescence units (RLU) were measured using an EnVision plate reader (Perkin Elmer). […] The effect of gemcitabine treatment on viability was measured based on the normalized viabilities in the drug treated and vehicle wells using Limma, Statistical significance was measured by p-values controlled for the false discovery rate (FDR) using the Benjamini-Hochberg step-up method to account for multiple testing. […]
In general terms: In ATP-based viability assays light output follows the ATP content of the culture.

Assay [4] concerns BxPC3 cells. Put plainly: Western blot of Rad51 and γH2AX in supernatant and chromatin fractions. It is filed as cell-based, human. As to conditions: gemcitabine for 18 hours. The procedure:
Western Blotting. BxPC3, Panc1, and CFPAC1 cells were treated with vehicle or gemcitabine (50 nM) for 18 hrs. Cells were harvested, washed in PBS and lysed in NP40 lysis buffer (1% NP40/PBS/10% glycerol) with protease and phosphatase inhibitors. Protein concentrations were determined with MicroBCA Assay (Pierce Biotechnology; 23224 and 23228) and then SDS sample buffer was added to the lysates. 40 μg of boiled lysates was separated by SDS-PAGE and then transferred onto Immobilon P membrane (Millipore; IPVH00010). Antibodies used for immunoblotting were obtained from: VDR (Epitomics; 3277-1), γH2AX (Upstate Biotechnologies, now Millipore; 05-636), Rad51 (Genetex; GTX70230, gift), p300 (Santa Cruz Biotechnologies; SC-584), and TAO1 kinase (Bethyl Labs; A300-524A).
For orientation: Immunoblotting shows a protein as a band on a membrane.

The test system of assay [5] is Panc1 cells. Put plainly: Time-lapse microscopy of H2B:gfp cells. It is filed as cell-based, human. As to conditions: gemcitabine 50 nM. As to the method: Microscopy. For timelapse studies, Panc1 cells with stable expression of Histone H2B fused at its C-terminus to GFP were seeded into 6-well plates. 24 hours post cell plating, gemcitabine (50 nM) was added before timelapse was commenced. The plate was placed in a 37° C. chamber; bright-field and fluorescent images were taken every 5 minutes for 48 hours using a Nikon TE2000S microscope controlled by Metamorph (Molecular Devices). Three independent movies were conducted for each condition. Movies were allowed to commence for 48 hours for each independent experiment.
Time-lapse microscopy was used to track the fates of gemcitabine-treated Panc1 cells that stably expressed a H2B:gfp fusion protein that labeled chromosomes. Cells were transfected with siRNAs, treated with vehicle or gemcitabine and monitored every 10 minutes for 48 hours (FIG. 2).

One may read the IC50 as the concentration that inhibits the measured activity by half. Usually IC20 stands for the concentration at which the effect reaches the 20% level. As to `Nc1ccn([C@@H]2O[C@H](CO)[C@@H](O)C2(F)F)c(=O)n1` [gemcitabine], the half-maximal inhibitory concentration (IC50) is 50 nM in the assay with BxPC3 cells [1] (BXPC-3, BxPC3 VDRkd cells, with TSA (500 nM), read-out: IC50 of gemcitabine); 50 nM in the assay with BxPC3 cells [1] (BXPC-3, BxPC3 VDRkd cells, without TSA, read-out: IC50 of gemcitabine); about 200 nM with BxPC3 cells [1] (BXPC-3, BxPC3 parental cells, gemcitabine alone, read-out: IC50 gemcitabine); 100 nM with BxPC3 cells [1] (BXPC-3, BxPC3 parental cells, gemcitabine plus TSA (500 nM), read-out: IC50 gemcitabine); about 18 nM in the assay with Panc1 cells [2] (PANC-1, Panc1, VDR knockdown (siRNA)); about 19 nM with Panc1 cells [2] (PANC-1, Panc1, control cells (control shRNA)). Moreover, the 50% inhibitory concentration (IC50) in the assay with Panc1 cells [2] (PANC-1, Panc1, control transfected) was about 30 nM; in the assay on Panc1 cells [2] (PANC-1, Panc1, p300 knockdown) it was about 16 nM; in the assay on Panc1 cells [2] (PANC-1, Panc1 transfected with WT-VDR (overexpression)), about 250 nM; in the assay on Panc1 cells [2] (PANC-1, Panc1 transfected with vector) it was about 25 nM; in the assay on Panc1 cells [2] (PANC-1, Panc1 cells), about 30 nM. Further, the “cells survived (colony formation) compared to control samples treated with gemcitabine” value in the assay on Panc1 cells [2] (Panc1, Chk1 siRNA, 50 nM gemcitabine 24 hours) was 3%; in the assay with Panc1 cells [2] (Panc1, VDR siRNA, 50 nM gemcitabine 24 hours) it was 8%. Besides, in the assay with Panc1 cells [2] (Panc1, control siRNA, 50 nM gemcitabine 24 hours), the “colony formation, vehicle versus gemcitabine” value is recorded as “did not differ significantly”. For the same compound, in the assay with Panc1 cells [2] (Panc1 cells with increased VDR levels), the “increase of gemcitabine IC50 over controls” value is given as about 10 fold. For the same compound, in the assay with Panc1 cells [3], the concentration for an effect of 20% (IC20) was found to be 50 nM. Further, the “Rad51 and H2AX in whole cell extracts (supernatants), parental versus BxPC3 VDRkd” value with BxPC3 cells [4] is listed as “equivalent amounts”. For the same compound, in the assay on BxPC3 cells [4], the “Rad51 and phospho-γH2AX in chromatin fractions, VDRkd compared to parental BxPC3” value is “very low amounts”. The “cell fate in 48 hour timelapse” value in the assay with Panc1 cells [5] (Panc1, Chk1 knockdown) is on record as “enter mitosis where many died or died shortly after exit from mitosis”; in the assay on Panc1 cells [5] (Panc1, VDR siRNA), “never entered mitosis, but nevertheless died”; with Panc1 cells [5] (Panc1, control siRNA), “stopped proliferation”.
